Reference: patent publication US4448962A, “Substituted quinoline carboxylic acid derivatives” (Kyorin Seiyaku Kabushiki Kaisha, priority 1978, dated 1984)
Values after ≈ are worked out from the molar mass of the structure shown. Read-outs that look alike come from different tables or passages of the source.

How the values were obtained:
Test in all cases: Antibacterial spectrum (Minimum Inhibitory Concentration)
Assay type in all cases: cell-based
E. coli ATCC 10536 = details: Escherichia coli, ATCC10536, read-out: Minimum Inhibitory Concentration
Source text: (§1) The antibacterial tests were done according to the method authorized by the Chemotherapeutic Society of Japan.

Sta. aureus ATCC 14775 = details: Staphylococcus aureus
Source text: as §1

Ps. aeruginosa IID 1210 = details: Pseudomonas aeruginosa
Source text: as §1

Ps. aeruginosa IID 1130 = details: Pseudomonas aeruginosa
Source text: as §1

[1] = tested on: Mycobacterium smegmatis IFO 3083; details: Mycolicibacterium smegmatis
Source text: as §1

Ps. aeruginosa IFO 12689 = details: Pseudomonas aeruginosa
Source text: as §1

[2] = tested on: Escherichia coli NIHJ JC-2; details: Escherichia coli, NIHJJC2, read-out: Minimum Inhibitory Concentration
Source text: as §1

[3] = tested on: Pseudomonas aeruginosa V-1
Source text: as §1

[4] = tested on: Proteus vulgaris IFO 3167
Source text: as §1

[5] = tested on: Staphylococcus aureus 209P; details: read-out: Minimum Inhibitory Concentration
Source text: as §1

Shigella sonnei IID 969 = details: IID969; Shigella sonnei IID 969, Gram -
Source text: as §1

[6] = tested on: Klebsiella pneumoniae IFO 3512; details: Klebsiella pneumoniae, IFO3512, read-out: Minimum Inhibitory Concentration
Source text: as §1

Pr. vulgaris XK Denken = details: Proteus vulgaris, read-out: Minimum Inhibitory Concentration
Source text: as §1

[7] = tested on: Salmonella enteritidies IID 604
Source text: as §1

[8] = tested on: Bacillus subtilis PCI 219
Source text: as §1

Compound `CCn1cc(C(=O)O)c(=O)c2ccc(C)nc21` [Nalidixic, nalidixic acid, reference compound] has an MIC (E. coli ATCC 10536) of 3.13 µg/mL (≈ 13.5 µM), an MIC (Sta. aureus ATCC 14775; ATCC14775, read-out: Minimum Inhibitory Concentration) greater than 100 µg/mL and an MIC (Ps. aeruginosa IID 1210; IID1210, read-out: Minimum Inhibitory Concentration) greater than 200 µg/mL. It also gave an MIC (Ps. aeruginosa IID 1130; IID1130, read-out: Minimum Inhibitory Concentration) greater than 200 µg/mL, an MIC ([1]; IFO3083, read-out: Minimum Inhibitory Concentration) greater than 100 µg/mL and an MIC (Ps. aeruginosa IFO 12689; IFO12689, read-out: Minimum Inhibitory Concentration) greater than 200 µg/mL. It also gave an MIC [2] of 3.13 µg/mL (≈ 13.5 µM), an MIC ([3]; Pseudomonas aeruginosa, V1, read-out: Minimum Inhibitory Concentration) of 100 µg/mL (≈ 431 µM) and an MIC ([4]; Proteus vulgaris, IFO3167, read-out: Minimum Inhibitory Concentration) of 3.13 µg/mL (≈ 13.5 µM). It also gave an MIC ([5]; Staphylococcus aureus, 209P) of 100 µg/mL (≈ 431 µM), an MIC (Shigella sonnei IID 969) of 1.56 µg/mL (≈ 6.72 µM) and an MIC [6] of 1.56 µg/mL (≈ 6.72 µM). For the same compound, the MIC (Pr. vulgaris XK Denken) was 3.13 µg/mL (≈ 13.5 µM), the MIC ([7]; Salmonella, IID604, read-out: Minimum Inhibitory Concentration) was 12.5 µg/mL (≈ 53.8 µM) and the MIC ([8]; Bacillus subtilis, PCI219, read-out: Minimum Inhibitory Concentration) was 6.25 µg/mL (≈ 26.9 µM).
`CCn1cc(C(=O)O)c(=O)c2cnc(N3CCNCC3)nc21` [Pipemidic acid, reference compound] was tested, and the MIC (E. coli ATCC 10536) was 1.56 µg/mL (≈ 5.14 µM), the MIC (Sta. aureus ATCC 14775; ATCC14775, Sta. aureus ATCC 14775, Gram +, read-out: Minimum Inhibitory Concentration) was 100 µg/mL (≈ 330 µM) and the MIC (Ps. aeruginosa IID 1210; IID1210, Ps. aeruginosa IID 1210, Gram -, read-out: Minimum Inhibitory Concentration) was 50 µg/mL (≈ 165 µM). For the same compound, the MIC (Ps. aeruginosa IID 1130; IID1130, Ps. aeruginosa IID 1130, Gram -, read-out: Minimum Inhibitory Concentration) was 25 µg/mL (≈ 82.4 µM), the MIC ([1]; IFO3083, Mycobacterium smegmatis IFO 3083, Gram +, read-out: Minimum Inhibitory Concentration) was 50 µg/mL (≈ 165 µM) and the MIC (Ps. aeruginosa IFO 12689; IFO12689, Ps. aeruginosa IFO 12689, Gram -, read-out: Minimum Inhibitory Concentration) was 25 µg/mL (≈ 82.4 µM). It also gave an MIC [2] of 1.56 µg/mL (≈ 5.14 µM), an MIC ([3]; V1, Pseudomonas aeruginosa V-1, Gram -, read-out: Minimum Inhibitory Concentration) of 12.5 µg/mL (≈ 41.2 µM) and an MIC ([4]; IFO3167, Proteus vulgaris IFO 3167, Gram -, read-out: Minimum Inhibitory Concentration) of 3.13 µg/mL (≈ 10.3 µM). It also gave an MIC ([5]; Staphylococcus aureus 209P, Gram +) of 25 µg/mL (≈ 82.4 µM), an MIC (Shigella sonnei IID 969) of 1.56 µg/mL (≈ 5.14 µM) and an MIC [6] of 1.56 µg/mL (≈ 5.14 µM). For the same compound, the MIC (Pr. vulgaris XK Denken; Pr. vulgaris XK Denken, Gram -) was 6.25 µg/mL (≈ 20.6 µM), the MIC ([7]; IID604, Salmonella enteritidies IID 604, Gram -, read-out: Minimum Inhibitory Concentration) was 12.5 µg/mL (≈ 41.2 µM) and the MIC ([8]; PCI219, Bacillus subtilis PCI 219, Gram +, read-out: Minimum Inhibitory Concentration) was 6.25 µg/mL (≈ 20.6 µM).
